For experiment [1], the system named is Clostridium autoethanogenum. As to the kind of experiment: Fermentation trials, effect of vitamin feed rates and low cell retention time on specific ethanol productivity. It is filed as cell-based. Here is the method:
Fermentation trials were conducted with Clostridium autoethanogenum with Biotin (B7) and Thiamine (B1) feeds held at lower base levels with increasing Pantothenate (B5) Feeds.

A further experiment concerns Clostridium ljungdahlii. Kind of experiment: Syngas fermentation in stirred tank bioreactor, effect of vitamin feed rates on specific ethanol productivity. It is filed as cell-based. To be noted: for effect of increasing feed rate on specific ethanol productivity: Experiment 4, vitamin B5 feed held constant below about 30 ug/g of cells, vitamin B1 and B7 feeds increased. Here is the method:
A synthesis gas containing CO. CO2 and H2 was continuously introduced into a stirred tank bioreactor containing Clostridium ljungdahlii (Experiments 1-4), along with a liquid medium containing trace metals and salts as described herein. Vitamins were provided using dedicated feed lines. A New Brunswick Bioflow reactor containing the fermentation medium was started with actively growing Clostridium ljungdahlii (Experiments 1-4). The rate of agitation of the reactor was set to 800 rpm at the start of the experiment and this agitation rate was maintained throughout the experiment. Feed gas flow to the reactor was increased based on the H2 and CO uptake of the culture. Temperature in the bioreactor was maintained at about 38° C. throughout the experiment. Samples of gas feed into the bioreactor and off-gas from the bioreactor and fermentation broth in the bioreactor were taken at intervals, for example feed gas, off-gas and fermentation broth were sampled about daily, once two hours and once four hours respectively. Above samples were analyzed for consumption or production of various gas components, broth acetic acid concentration, broth ethanol concentration and the optical density (cell density) of the culture. The unaroused volume of the reactor was maintained between 3000 to 3250 ml throughout the experiment. Further, the gas flow to the reactor was maintained at required gas flow rates by using a mass flow controller. The feed […] composition was 23% H2, 35% CO, 29% CO2 and 13% N2. In the following reactor runs, vitamins biotin, thiamine and pantothenate were feed to the reactor using a dedicated stream. Steady state conditions were maintained for a period of time greater than 5 times the cell retention time. Cell mass was essentially replaced 5 times before data collection phase started. After data set was collected, vitamin feed rate was adjusted, adjustment phase was repeated, and next data set was collected. Adjustment phase refers to an amount of time necessary for the culture to equilibrate to a change. In this experiment culture was allowed at least a 3-day adjustment phase. A cell recycle system (CRS) was attached to the reactor before the start of the experiment. During the experiment, medium feed rate was 3.0 to 6.0 ml/min, and through the CRS, 0-5 ml/min permeate was drawn out from the reactor. The following tables describe the vitamin feed rates and specific ethanol productivity (SEP).

Consider `CC(C)(CO)[C@@H](O)C(=O)NCCC(=O)O` [Pantothenate, pantothenate], for which the “SEP (specific ethanol productivity)” value in experiment [1] (feeds (μg/g cells produced): pantothenate 48.47, biotin 29.54, thiamine 23.10, cell retention time 13.45 hrs) is on record as 8.08 g/day/g cells; in experiment [1] (feeds (μg/g cells produced): pantothenate 58.08, biotin 26.65, thiamine 20.84, cell retention time 13.27 hrs), 8.24 g/day/g cells; in experiment [1] (feeds (μg/g cells produced): pantothenate 62.90, biotin 23.04, thiamine 18.01, cell retention time 12.44 hrs), 8.51 g/day/g cells; in experiment [1] (feeds (μg/g cells produced): pantothenate 68.78, biotin 25.19, thiamine 19.70, cell retention time 11.36 hrs) it was 9.39 g/day/g cells; in experiment [1] (feeds (μg/g cells produced): pantothenate 70.67, biotin 21.62, thiamine 16.91, cell retention time 11.22 hrs), 9.70 g/day/g cells; in experiment [1] (feeds (μg/g cells produced): pantothenate 81.90, biotin 18.79, thiamine 14.69, cell retention time 9.81 hrs) it was 9.98 g/day/g cells. In addition, the “SEP (specific ethanol productivity)” value in the experiment with Clostridium ljungdahlii (Experiment 3, feeds (μg/g cells produced): pantothenate 19.33, biotin 17.76, thiamine 13.36) is 7.95 g/day/g cells; in the experiment on Clostridium ljungdahlii (Experiment 3, feeds (μg/g cells produced): pantothenate 37.91, biotin 17.42, thiamine 13.10), 8.64 g/day/g cells; in the experiment on Clostridium ljungdahlii (Experiment 3, feeds (μg/g cells produced): pantothenate 55.49, biotin 17.00, thiamine 12.79), 10.03 g/day/g cells; with Clostridium ljungdahlii (Experiment 3, feeds (μg/g cells produced): pantothenate 72.34, biotin 16.62, thiamine 12.50), 10.33 g/day/g cells; in the experiment with Clostridium ljungdahlii (Experiment 3, feeds (μg/g cells produced): pantothenate 108.13, biotin 19.87, thiamine 14.95), 11.25 g/day/g cells; in the experiment on Clostridium ljungdahlii (Experiment 3, feeds (μg/g cells produced): pantothenate 125.67, biotin 20.55, thiamine 14.76) it was 11.15 g/day/g cells. The “specific ethanol productivity increase” value in experiment [1] (vitamin B5 feed from about 48 to about 82 ug/g of cells produced, B1 and B7 under 30 then under 20 ug/g, cell retention time from about 13.5 to 9.8 hours) is “about 24%”; in the experiment on Clostridium ljungdahlii (Experiment 3, vitamin B5 feed from about 20 to about 108 ug/g of cells produced, vitamin B1 and B7 feeds under 20 ug/g) it was “about 42%”.
On to `Cc1ncc(C[n+]2csc(CCO)c2C)c(N)n1` [Thiamine, thiamine], for which, in the experiment on Clostridium ljungdahlii, the “effect of increasing feed rate on specific ethanol productivity” value is “did not increase specific ethanol productivity”.
As for `O=C(O)CCCC[C@@H]1SC[C@@H]2NC(=O)N[C@@H]21` [Biotin, biotin], the “effect of increasing feed rate on specific ethanol productivity” value with Clostridium ljungdahlii is “did not increase specific ethanol productivity”.
